Experimental data from PMC6277767, “Broad and Region-Specific Impacts of the Synthetic Cannabinoid CP 55,940 in Adolescent and Adult Female Mouse Brains” (Frontiers in Molecular Neuroscience, 2018).

System: CD1 female mouse brain lipidome
Test: Brain-region lipid levels (HPLC/MS/MS lipidomics) 2 h after single i.p. 3 mg/kg CP 55,940 vs vehicle
Assay type: in vivo
Settings: brainstem
Protocol: The Bloomington Institutional Animal Care and Use Committee of Indiana University reviewed and approved the animal procedures. Female mice from the CD1 strain were utilized to match our study examining THC’s effects on the brain lipidome ([Leishman et al., 2018]). Mice were given a single i.p. injection of either 3 mg/kg CP or 1:1:18 cremophor:ethanol:saline vehicle (please refer to the section “3 mg/kg CP Is Relevant for Synthetic Cannabinoid Abuse and Has Stronger Effects on the Female Mouse Brain Lipidome During Adolescence” for a justification of dose and use of female mice). Three different age groups were given injections: PND 35 and PND 50 adolescents, and adult mice (PND 113). At least eight mice in each age group received CP and at least eight received vehicle. Matching the THC study time course ([Leishman et al., 2018]), mice were sacrificed via rapid decapitation 2 h after injection. Brains were immediately removed and flash-frozen in liquid nitrogen, and then stored at -80°C until dissections were performed. Brains were dissected on an ice-cold dissection plate into the following regions: STR, HIPP, CER, THAL, CTX, HYP, MID, and STEM. These abbreviations for these brain areas will be used exclusively when discussing the results generated by these specific dissections. Each dissected area was immediately placed in liquid nitrogen and then stored at -80°C until used for lipid extraction.
Tissue extracts were performed as previously described ([Bradshaw et al., 2006]; [Stuart et al., 2013]; [Raboune et al., 2014]; [Leishman et al., 2016a],[b], [2017], [2018]). First, samples were shock frozen in liquid nitrogen, weighed, and transferred to a centrifuge tube. The mass of the largest sample was multiplied by 50 to determine how many milliliters of HPLC-grade methanol (Fisher, Fair Lawn, NJ, United States) to add. Then, samples were spiked with 500 pmol deuterium-labeled NAGly (d8NAGly; Cayman Chemical, Ann Arbor, MI, United States). Samples were placed on ice in darkness for 2 h then individually homogenized and centrifuged at 19,000 × g for 20 min at 20°C. Supernatants were diluted with HPLC water (purified in house) to make a solution of 75% water, 25% supernatant. Lipids were partially purified on C18 solid phase extraction columns (Agilent, Palo Alto, CA, United States). A series of four elutions with 1.5 mL of 60%, 75%, 85%, and 100% methanol were collected ([Stuart et al., 2013]; [Leishman et al., 2016a],[b], [2018]).
As previously described ([Bradshaw et al., 2006]; [Tan et al., 2006]; [Smoum et al., 2010]; [Stuart et al., 2013]; [Tortoriello et al., 2013]; [Raboune et al., 2014]; [Leishman et al., 2016a],[b], [2017], [2018]), samples were analyzed using an Applied Biosystems API 3000 triple quadrupole mass spectrometer with electrospray ionization (Foster City, CA, United States). Using an Agilent XDB-C18 reversed phase analytical column and optimized mobile phase gradients, 20 μL from each elution were chromatographed. Two Shimadzu 10ADvp pumps (Columbia, MD, United States) provided the pressure for gradient elution. Mobile phase A: 20% methanol, 80% water (v/v) and 1 mM ammonium acetate (Sigma, St. Louis, MO, United States). Mobile phase B: 100% methanol, 1 mM ammonium acetate. Every method run began with 0% mobile phase B, reached 100% mobile phase B flowing at 0.2 mL/min, and gradually returned to 0% mobile phase B.
This screening library will be referred to as the lipidome when discussing data from this study. HPLC/MS/MS data were analyzed using Analyst software (Applied Biosystems) ([Bradshaw et al., 2006]; [Tan et al., 2006]; [Stuart et al., 2013]; [Tortoriello et al., 2013]; [Raboune et al., 2014]; [Leishman et al., 2016a],[b], [2017], [2018]). Chromatograms (Supplementary Figure 3) were generated by determining the retention time of analytes from the analytical column with a [M-1] or [M+1] parent peak and a fragmentation peak corresponding to the programmed values. […]

[1] = PND 50, 3 mg/kg CP 55,940, one-way ANOVA p .000
[2] = PND 50, 3 mg/kg CP 55,940, one-way ANOVA p .001
[3] = PND 50, 3 mg/kg CP 55,940, one-way ANOVA p .002
[4] = PND 50, 3 mg/kg CP 55,940, one-way ANOVA p .003
[5] = PND 50, 3 mg/kg CP 55,940, one-way ANOVA p .006
[6] = PND 50, 3 mg/kg CP 55,940, one-way ANOVA p .007
[7] = PND 50, 3 mg/kg CP 55,940, one-way ANOVA p .008
[8] = PND 50, 3 mg/kg CP 55,940, one-way ANOVA p .014
[9] = PND 50, 3 mg/kg CP 55,940, one-way ANOVA p .015
[10] = PND 50, 3 mg/kg CP 55,940, one-way ANOVA p .018
[11] = PND 50, 3 mg/kg CP 55,940, one-way ANOVA p .023
[12] = PND 50, 3 mg/kg CP 55,940, one-way ANOVA p .041
[13] = PND 50, 3 mg/kg CP 55,940, one-way ANOVA p .043

## CCCCCCC(C)(C)c1ccc([C@@H]2C[C@H](O)CC[C@H]2CCCO)c(O)c1 [CP 55,940]
PND 50, 3 mg/kg CP 55,940
  N-palmitoyl methionine level, Mean: 7.37E-13
  N-palmitoyl phenylalanine level, Mean: 1.09E-12
  N-palmitoyl proline level, Mean: BDL
  N-palmitoyl serine level, Mean: 2E-11
  N-palmitoyl tryptophan level, Mean: BDL
  N-palmitoyl tyrosine level, Mean: 5.77E-13
  N-palmitoyl valine level, Mean: 1.73E-13
  N-stearoyl GABA level, Mean: 7.1E-12
  N-stearoyl alanine level, Mean: 1.5E-12
  N-stearoyl ethanolamine level, Mean: 2.63E-11
  N-stearoyl glycine level, Mean: 4.43E-12
  N-stearoyl leucine level, Mean: 7.24E-13
  N-stearoyl methionine level, Mean: 8.45E-13
  N-stearoyl phenylalanine level, Mean: 9.56E-13
  N-stearoyl proline level, Mean: BDL
  N-stearoyl serine level, Mean: 3.14E-11
  N-stearoyl tryptophan level, Mean: BDL
  N-stearoyl tyrosine level, Mean: 7.69E-14
  Oleic acid level, Mean: 1.94E-10
  PGE2 level, Mean: 1.11E-10
  PhosphoLEA level, Mean: 7.34E-13
  THC level, Mean: BDL
[1]
  N-arachidonoyl GABA Direction (relative to Veh): ↓
  N-arachidonoyl GABA Magnitude (x Veh level): 0.68 x Veh level
  PGF2α Direction (relative to Veh): ↓
  PGF2α Magnitude (x Veh level): 0.74 x Veh level
[2]
  N-palmitoyl leucine, Direction (relative to Veh): ↑
  N-palmitoyl leucine, Magnitude (x Veh level): 1.44 x Veh level
[3]
  6-ketoPGF1α Direction (relative to Veh): ↓
  6-ketoPGF1α Magnitude (x Veh level): 0.70 x Veh level
[4]
  N-arachidonoyl taurine Direction (relative to Veh): ↓
  N-arachidonoyl taurine Magnitude (x Veh level): 0.83 x Veh level
[5]
  N-palmitoyl tyrosine Magnitude (x Veh level): 1.23 x Veh level
  N-palmitoyl tyrosine, Direction (relative to Veh): ↑
[6]
  N-arachidonoyl tyrosine, Direction (relative to Veh): ↓
  N-arachidonoyl tyrosine, Magnitude (x Veh level): 0.74 x Veh level
[7]
  N-arachidonoyl serine Direction (relative to Veh): ↓
  N-arachidonoyl serine Magnitude (x Veh level): 0.80 x Veh level
[8]
  PGE2 Direction (relative to Veh): ↓
  PGE2 Magnitude (x Veh level): 0.73 x Veh level
[9]
  2-linoleoyl glycerol Direction (relative to Veh): ↓
  2-linoleoyl glycerol Magnitude (x Veh level): 0.74 x Veh level
[10]
  Oleic acid, Direction (relative to Veh): ↓
  Oleic acid, Magnitude (x Veh level): 0.84 x Veh level
[11]
  N-arachidonoyl phenylalanine, Direction (relative to Veh): ↑
  N-arachidonoyl phenylalanine, Magnitude (x Veh level): 1.40 x Veh level
[12]
  N-oleoyl methionine, Direction (relative to Veh): ↓
  N-oleoyl methionine, Magnitude (x Veh level): 0.68 x Veh level
[13]
  Linoleic acid, Direction (relative to Veh): ↓
  Linoleic acid, Magnitude (x Veh level): 0.81 x Veh level
PND 50, 3 mg/kg CP 55,940, one-way ANOVA p .046
  2-oleoyl glycerol, Direction (relative to Veh): ↓
